Measurements taken from PubChem BioAssay (NCI).
Where “and” joins values, the source holds several entries; their conditions need not be identical. Identical values can stand only once.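 All cell lines were grown in 96-well plates and treated with compound for 48 hours. The concentration for 50% growth inhibition is given as GI50. Definition used: TGI = concentration required for complete inhibition of growth.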

Columns and labels:
Test in all cases: NCI tumour cell line growth inhibition, 48 h
[1] = system: RXF 393 renal
[2] = system: BT-549 breast
[3] = system: SF-539 CNS
[4] = system: HOP-62 NSCLC
[5] = system: HCT-15 colon
[6] = system: MOLT-4 leukemia
[7] = system: 786-0 renal
[8] = system: EKVX NSCLC
[9] = system: KM12 colon
[10] = system: CAKI-1 renal
[11] = system: UO-31 renal
[12] = system: NCI-H460 lung
[13] = system: COLO 205 colon
[14] = system: SW-620 colon
[15] = system: ACHN renal
[16] = system: UACC-257 melanoma
[17] = system: DU-145 prostate
[18] = system: U251 CNS
[19] = system: SK-MEL-5 melanoma
[20] = system: SK-OV-3 ovarian
[21] = system: SNB-75 CNS
[22] = system: HOP-92 NSCLC
[23] = system: SR leukemia
[24] = system: SF-295 CNS
[25] = system: M14 melanoma
[26] = system: OVCAR-5 ovarian
[27] = system: IGROV1 ovarian
[28] = system: RPMI-8226 leukemia
[29] = system: LOX IMVI melanoma
[30] = system: K-562 leukemia
[31] = system: MALME-3M melanoma
[32] = system: TK-10 renal
[33] = system: SNB-19 CNS
[34] = system: A498 renal
[35] = system: NCI-H522 lung
[36] = system: MDA-MB-231 breast
[37] = system: HCT-116 colon
[38] = system: NCI-H226 lung
[39] = system: T-47D breast
[40] = system: UACC-62 melanoma
[41] = system: SK-MEL-2 melanoma
[42] = system: A549 NSCLC
[43] = system: CCRF-CEM leukemia
[44] = system: HL-60(TB) leukemia
[45] = system: MDA-MB-435
[46] = system: HS 578T breast
[47] = system: OVCAR-8 ovarian
[48] = system: OVCAR-4 ovarian
[49] = system: HT29 colon
[50] = system: NCI-H23 lung
[51] = system: NCI/ADR-RES ovarian
[52] = system: HCC-2998 colon
[53] = system: MCF7 breast
[54] = system: SK-MEL-28 melanoma
[55] = system: OVCAR-3 ovarian
[56] = system: SN12C renal
[57] = system: SF-268 CNS
[58] = system: PC-3 prostate

Compound: C[C@]12CC[C@H](OC3OC(O)C(O)C(O)C3O)C=C1CCC1C2CC[C@]2(C)[C@@H](c3ccc(=O)oc3)CC[C@]12O (stereo partly drawn)
- GI50 [1]: 1.79 nM
- TGI [1]: 3.9 nM
- GI50 [2]: 3.59 nM and 5 nM
- TGI [2]: 11.8 nM and 6.59 nM
- GI50 [3]: 2.62 nM and 5 nM
- TGI [3]: 6.21 nM and 5.68 nM
- GI50 [4]: 1.78 nM
- TGI [4]: 3.28 nM
- GI50 [5]: 4.65 nM and 5 nM
- TGI [5]: 21.8 nM and 15.5 nM
- GI50 [6]: 2.34 nM
- TGI [6]: 5.3 nM
- GI50 [7]: 2.59 nM and 5 nM
- TGI [7]: 7 nM and 5.73 nM
- GI50 [8]: 2.86 nM and 5 nM
- TGI [8]: 9.07 nM and 5.58 nM
- GI50 [9]: 4.87 nM and 5 nM
- TGI [9]: 25.8 nM and 26.6 nM
- GI50 [10]: 3.57 nM and 5 nM
- TGI [10]: 24.8 nM and 17.3 nM
- GI50 [11]: 4.64 nM and 5 nM
- TGI [11]: 16.8 nM and 8.11 nM
- GI50 [12]: 2.42 nM and 5 nM
- TGI [12]: 6.33 nM and 5.12 nM
- GI50 [13]: 15.3 nM and 7.93 nM
- TGI [13]: 35.8 nM and 17.1 nM
- GI50 [14]: 4.45 nM and 5 nM
- TGI [14]: 25.4 nM and 15.4 nM
- GI50 [15]: 3.49 nM and 5 nM
- TGI [15]: 11.9 nM and 5.78 nM
- GI50 [16]: 10.6 nM and 5.17 nM
- TGI [16]: 24.2 nM and 11.5 nM
- GI50 [17]: 2.77 nM
- TGI [17]: 6.98 nM
- GI50 [18]: 3.82 nM and 5 nM
- TGI [18]: 14.1 nM and 9.03 nM
- GI50 [19]: 1.96 nM and 5 nM
- TGI [19]: 4.28 nM and 6.32 nM
- GI50 [20]: 3.65 nM and 5 nM
- TGI [20]: 12 nM and 6.59 nM
- GI50 [21]: 3.21 nM and 5 nM
- TGI [21]: 15.7 nM and 6.16 nM
- GI50 [22]: 3.94 nM and 7.24 nM
- TGI [22]: 34.2 nM and 29.2 nM
- GI50 [23]: 2.21 nM
- TGI [23]: 6.19 nM
- GI50 [24]: 3.16 nM and 5 nM
- TGI [24]: 80.9 nM and 13 nM
- GI50 [25]: 14.8 nM and 9.18 nM
- TGI [25]: 29.9 nM and 19.9 nM
- GI50 [26]: 8.01 nM and 5 nM
- TGI [26]: 25.2 nM and 11.9 nM
- GI50 [27]: 4.64 nM and 5 nM
- GI50 [28]: 4.39 nM
- TGI [28]: 74.8 nM
- GI50 [29]: 3.33 nM and 5 nM
- TGI [29]: 12 nM and 7.7 nM
- GI50 [30]: 4.06 nM
- TGI [30]: 18.1 nM
- GI50 [31]: 3.28 nM and 5 nM
- TGI [31]: 9.89 nM and 11.8 nM
- GI50 [32]: 5.08 nM
- TGI [32]: 42.2 nM
- GI50 [33]: 6.88 nM and 5 nM
- TGI [33]: 50.6 nM and 28.7 nM
- GI50 [34]: 3.45 nM and 5 nM
- TGI [34]: 48.3 nM and 23.7 nM
- GI50 [35]: 2.86 nM
- TGI [35]: 11.4 nM
- GI50 [36]: 19.4 nM and 15.6 nM
- TGI [36]: 100 nM and 60.2 nM
- GI50 [37]: 3.62 nM and 5 nM
- TGI [37]: 11.9 nM and 6.71 nM
- GI50 [38]: 2.62 nM and 5.27 nM
- TGI [38]: 8.62 nM and 11.3 nM
- GI50 [39]: 4.04 nM and 5 nM
- TGI [39]: 19.8 nM and 16.6 nM
- GI50 [40]: 6.26 nM and 7.83 nM
- TGI [40]: 21.4 nM and 17.6 nM
- GI50 [41]: 3.53 nM and 7.62 nM
- TGI [41]: 10.3 nM and 17.7 nM
- GI50 [42]: 1.78 nM
- TGI [42]: 3.58 nM
- GI50 [43]: 5 nM
- TGI [43]: 50000 nM
- GI50 [44]: 2.27 nM
- TGI [44]: 5.12 nM
- GI50 [45]: 4.03 nM and 5.78 nM
- TGI [45]: 21.2 nM and 19.2 nM
- GI50 [46]: 2.24 nM
- TGI [46]: 50.6 nM
- GI50 [47]: 3.67 nM and 5 nM
- TGI [47]: 16.8 nM and 7.2 nM
- GI50 [48]: 2.98 nM
- TGI [48]: 16.7 nM
- GI50 [49]: 4.52 nM and 5 nM
- TGI [49]: 17.6 nM and 9.16 nM
- GI50 [50]: 2.93 nM
- TGI [50]: 11.4 nM
- GI50 [51]: 2.64 nM and 5 nM
- TGI [51]: 7.55 nM and 6.47 nM
- GI50 [52]: 4.67 nM and 5 nM
- TGI [52]: 25.2 nM and 16.5 nM
- GI50 [53]: 3.42 nM and 5 nM
- TGI [53]: 65.4 nM and 14.4 nM
- GI50 [54]: 5.85 nM and 6.06 nM
- TGI [54]: 20 nM and 13.8 nM
- GI50 [55]: 3.8 nM and 5 nM
- TGI [55]: 12.1 nM and 6.38 nM
- GI50 [56]: 3.04 nM and 5 nM
- TGI [56]: 17 nM and 9.65 nM
- GI50 [57]: 3.73 nM and 5 nM
- TGI [57]: 12.8 nM and 6.07 nM
- GI50 [58]: 3.84 nM
- TGI [58]: 22.1 nM

Compound: CCOC(=O)c1c(-c2ccccc2)oc(=O)c(Cc2cccc3cccnc23)c1-c1ccccc1
- TGI [1]: > 10000 nM
- TGI [2]: > 10000 nM
- TGI [3]: > 10000 nM
- TGI [4]: > 10000 nM
- TGI [5]: > 10000 nM
- TGI [6]: > 10000 nM
- TGI [7]: > 10000 nM
- TGI [8]: > 10000 nM
- TGI [9]: > 10000 nM
- TGI [10]: > 10000 nM
- TGI [11]: > 10000 nM
- TGI [12]: > 10000 nM
- TGI [13]: > 10000 nM
- TGI [14]: > 10000 nM
- TGI [15]: > 10000 nM
- TGI [16]: > 10000 nM
- TGI [17]: > 10000 nM
- TGI [18]: > 10000 nM
- TGI [19]: > 10000 nM
- TGI [20]: > 10000 nM
- TGI [21]: > 10000 nM
- TGI [22]: > 10000 nM
- TGI [23]: > 10000 nM
- TGI [24]: > 10000 nM
- TGI [25]: > 10000 nM
- TGI [26]: > 10000 nM
- TGI [27]: > 10000 nM
- TGI [28]: > 10000 nM
- TGI [29]: > 10000 nM
- TGI [30]: > 10000 nM
- TGI [31]: > 10000 nM
- TGI [32]: > 10000 nM
- TGI [33]: > 10000 nM
- TGI [34]: > 10000 nM
- TGI [35]: > 10000 nM
- TGI [36]: > 10000 nM
- TGI [37]: > 10000 nM
- TGI [38]: > 10000 nM
- TGI [39]: > 10000 nM
- TGI [40]: > 10000 nM
- TGI [41]: > 10000 nM
- TGI [42]: > 10000 nM
- TGI [43]: > 10000 nM
- TGI [44]: > 10000 nM
- TGI [45]: > 10000 nM
- TGI [46]: > 10000 nM
- TGI [47]: > 10000 nM
- TGI [48]: > 10000 nM
- TGI [49]: > 10000 nM
- TGI [50]: > 10000 nM
- TGI [51]: > 10000 nM
- TGI [52]: > 10000 nM
- TGI [53]: > 10000 nM
- TGI [54]: > 10000 nM
- TGI [55]: > 10000 nM
- TGI [56]: > 10000 nM
- TGI [57]: > 10000 nM
- TGI [58]: > 10000 nM
